Experimental data from patent publication US9695155B2, “Herbicidal substituted pyrimidinyloxy benzene compounds” (E. I. DU PONT DE NEMOURS AND COMPANY, priority 2013, dated 2017).

How the values were obtained:
kochia = test: Test D preemergence; format: in vivo, Kochia scoparia; settings: Bassia scoparia, pre-emergence
Method in brief: (§1)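 After treatment, visual injury versus untreated plants, 0–100 scale, assessed at 7 to 21 days. Applications were made preemergence to silt loam-sown seed and postemergence to seedlings 2–18 cm high in potting medium.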

Italian ryegrass [1] = test: Test D preemergence; format: in vivo, Lolium multiflorum; settings: Lolium multiflorum, pre-emergence
Method in brief: as §1

[2] = system: morningglory (pitted morningglory); test: Test F preemergence; format: in vivo, Ipomoea lacunosa; settings: 21 days, scale 0 to 100
Method in brief: (§2)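 Greenhouse test: soil (loam with sand) seeded, then sprayed preemergence using a surfactant-containing non-phytotoxic solvent formulation. At day 21, response judged visually relative to controls, where 0 means no effect and 100 means full control.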

Italian ryegrass [3] = test: Test D postemergence; format: in vivo, Lolium multiflorum; settings: Lolium multiflorum, post-emergence
Method in brief: as §1

wild oat = test: Test D postemergence; format: in vivo, Avena fatua; settings: Avena fatua, post-emergence
Method in brief: as §1

galium = test: Test D preemergence; format: in vivo, Galium aparine; settings: Galium, pre-emergence
Method in brief: as §1

nutsedge, purple = test: Test F preemergence; format: in vivo, Cyperus rotundus; settings: 21 days, scale 0 to 100
Method in brief: as §2

wild radish = test: Test D preemergence; format: in vivo, Raphanus raphanistrum; settings: Raphanus raphanistrum, pre-emergence
Method in brief: as §1

bluegrass = test: Test F preemergence; format: in vivo, Poa annua; settings: 21 days, scale 0 to 100
Method in brief: as §2

chamomile = test: Test D postemergence; format: in vivo, Matricaria inodora; settings: Tripleurospermum inodorum, post-emergence
Method in brief: as §1

dayflower = test: Test F preemergence; format: in vivo, Commelina virginica; settings: 21 days, scale 0 to 100
Method in brief: as §2

winter barley = test: Test D preemergence; format: in vivo, Hordeum vulgare; settings: Hordeum vulgare, pre-emergence
Method in brief: as §1

spring barley = test: Test D preemergence; format: in vivo, Hordeum vulgare; settings: Hordeum vulgare, pre-emergence
Method in brief: as §1

chickweed = test: Test D postemergence; format: in vivo, Stellaria media; settings: Stellaria media, post-emergence
Method in brief: as §1

spring wheat = test: Test D preemergence; format: in vivo, Triticum aestivum; settings: Triticum aestivum, pre-emergence
Method in brief: as §1

winter wheat = test: Test D preemergence; format: in vivo, Triticum aestivum; settings: Triticum aestivum, pre-emergence
Method in brief: as §1

N#Cc1cccc(Oc2ncc(Cl)cn2)c1-n1cc(OCC(F)(F)F)cn1 [Compound 274, 3-[(5-chloro-2-pyrimidinyl)oxy]-2-[4-(2,2,2-trifluoroethoxy)-1H-pyrazol-1-yl]benzonitrile]
pest or weed control at 16 g/ha (kochia; 16 g ai/ha, scale 0 (no effect) to 100 (complete control), read-out: Plant response rating, Kochia): 0% | pest or weed control at 31 g/ha (kochia; 31 g ai/ha, scale 0-100, read-out: Plant response rating, Kochia): 70% | pest or weed control at 62 g/ha (kochia; 62 g ai/ha, scale 0-100, read-out: Plant response rating, Kochia): 65% | pest or weed control at 125 g/ha (kochia; 125 g ai/ha, scale 0-100, read-out: Plant response rating, Kochia): 100% | pest or weed control at 16 g/ha (Italian ryegrass [1]; 16 g ai/ha, scale 0 (no effect) to 100 (complete control), read-out: Plant response rating, Ryegrass, Italian): 0% | pest or weed control at 31 g/ha (Italian ryegrass [1]; 31 g ai/ha, scale 0 (no effect) to 100 (complete control), read-out: Plant response rating, Ryegrass, Italian): 0% | pest or weed control at 125 g/ha (Italian ryegrass [1]; 125 g ai/ha, scale 0-100, read-out: Plant response rating, Ryegrass, Italian): 70% | Plant response rating, Morningglory ([2]; 16 g ai/ha): 35 | Plant response rating, Morningglory ([2]; 31 g ai/ha): 50 | Plant response rating, Morningglory ([2]; 62 g ai/ha): 65 | Plant response rating, Morningglory ([2]; 125 g ai/ha): 98 | Plant response rating, Morningglory ([2]; 250 g ai/ha): 100 | pest or weed control at 16 g/ha (Italian ryegrass [3]; 16 g ai/ha, scale 0-100, read-out: Plant response rating, Ryegrass, Italian): 15% | pest or weed control at 31 g/ha (Italian ryegrass [3]; 31 g ai/ha, scale 0 to 100 (0 no effect, 100 complete control), read-out: Plant response rating, Ryegrass, Italian): 25% | pest or weed control at 62 g/ha (Italian ryegrass [3]; 62 g ai/ha, scale 0 to 100 (0 no effect, 100 complete control), read-out: Plant response rating, Ryegrass, Italian): 35% | pest or weed control at 125 g/ha (Italian ryegrass [3]; 125 g ai/ha, scale 0 to 100 (0 no effect, 100 complete control), read-out: Plant response rating, Ryegrass, Italian): 35% | pest or weed control at 16 g/ha (wild oat; 16 g ai/ha, scale 0-100, read-out: Plant response rating, Oat, Wild): 20% | pest or weed control at 31 g/ha (wild oat; 31 g ai/ha, scale 0 to 100 (0 no effect, 100 complete control), read-out: Plant response rating, Oat, Wild): 30% | pest or weed control at 62 g/ha (wild oat; 62 g ai/ha, scale 0 to 100 (0 no effect, 100 complete control), read-out: Plant response rating, Oat, Wild): 35% | pest or weed control at 125 g/ha (wild oat; 125 g ai/ha, scale 0 to 100 (0 no effect, 100 complete control), read-out: Plant response rating, Oat, Wild): 40% | pest or weed control at 16 g/ha (galium; 16 g ai/ha, scale 0 (no effect) to 100 (complete control), read-out: Plant response rating, Galium): 0% | pest or weed control at 31 g/ha (galium; 31 g ai/ha, scale 0-100, read-out: Plant response rating, Galium): 60% | pest or weed control at 62 g/ha (galium; 62 g ai/ha, scale 0-100, read-out: Plant response rating, Galium): 100% | pest or weed control at 125 g/ha (galium; 125 g ai/ha, scale 0-100, read-out: Plant response rating, Galium): 100% | Plant response rating, Nutsedge, Purple (nutsedge, purple; 16 g ai/ha): 35 | Plant response rating, Nutsedge, Purple (nutsedge, purple; 31 g ai/ha): 50 | Plant response rating, Nutsedge, Purple (nutsedge, purple; 62 g ai/ha): 65 | Plant response rating, Nutsedge, Purple (nutsedge, purple; 125 g ai/ha): 85 | Plant response rating, Nutsedge, Purple (nutsedge, purple; 250 g ai/ha): 98 | pest or weed control at 16 g/ha (wild radish; 16 g ai/ha, scale 0 (no effect) to 100 (complete control), read-out: Plant response rating, Radish, Wild): 5% | pest or weed control at 31 g/ha (wild radish; 31 g ai/ha, scale 0 (no effect) to 100 (complete control), read-out: Plant response rating, Radish, Wild): 5% | pest or weed control at 125 g/ha (wild radish; 125 g ai/ha, scale 0-100, read-out: Plant response rating, Radish, Wild): 85% | Plant response rating, Bluegrass (bluegrass; 16 g ai/ha): 0 | Plant response rating, Bluegrass (bluegrass; 31 g ai/ha): 20 | Plant response rating, Bluegrass (bluegrass; 62 g ai/ha): 50 | Plant response rating, Bluegrass (bluegrass; 125 g ai/ha): 85 | Plant response rating, Bluegrass (bluegrass; 250 g ai/ha): 100 | pest or weed control at 16 g/ha (chamomile; 16 g ai/ha, scale 0-100, read-out: Plant response rating, Chamomile): 5% | pest or weed control at 31 g/ha (chamomile; 31 g ai/ha, scale 0 to 100 (0 no effect, 100 complete control), read-out: Plant response rating, Chamomile): 10% | pest or weed control at 62 g/ha (chamomile; 62 g ai/ha, scale 0 to 100 (0 no effect, 100 complete control), read-out: Plant response rating, Chamomile): 25% | pest or weed control at 125 g/ha (chamomile; 125 g ai/ha, scale 0 to 100 (0 no effect, 100 complete control), read-out: Plant response rating, Chamomile): 25% | Plant response rating, Dayflower, VA (dayflower; 16 g ai/ha): 90 | Plant response rating, Dayflower, VA (dayflower; 31 g ai/ha): 95 | Plant response rating, Dayflower, VA (dayflower; 62 g ai/ha): 98 | Plant response rating, Dayflower, VA (dayflower; 125 g ai/ha): 100 | Plant response rating, Dayflower, VA (dayflower; 250 g ai/ha): 100 | plant injury at 16 g/ha (winter barley; 16 g ai/ha, scale 0 (no effect) to 100 (complete control), read-out: Plant response rating, Barley, Winter): 0% | plant injury at 31 g/ha (winter barley; 31 g ai/ha, scale 0-100, read-out: Plant response rating, Barley, Winter): 0% | plant injury at 62 g/ha (winter barley; 62 g ai/ha, scale 0-100, read-out: Plant response rating, Barley, Winter): 10% | plant injury at 125 g/ha (winter barley; 125 g ai/ha, scale 0-100, read-out: Plant response rating, Barley, Winter): 55% | plant injury at 16 g/ha (spring barley; 16 g ai/ha, scale 0 (no effect) to 100 (complete control), read-out: Plant response rating, Barley, Spring): 0% | plant injury at 31 g/ha (spring barley; 31 g ai/ha, scale 0-100, read-out: Plant response rating, Barley, Spring): 0% | plant injury at 62 g/ha (spring barley; 62 g ai/ha, scale 0-100, read-out: Plant response rating, Barley, Spring): 10% | plant injury at 125 g/ha (spring barley; 125 g ai/ha, scale 0-100, read-out: Plant response rating, Barley, Spring): 15% | pest or weed control at 16 g/ha (chickweed; 16 g ai/ha, scale 0-100, read-out: Plant response rating, Chickweed): 65% | pest or weed control at 31 g/ha (chickweed; 31 g ai/ha, scale 0 to 100 (0 no effect, 100 complete control), read-out: Plant response rating, Chickweed): 65% | pest or weed control at 62 g/ha (chickweed; 62 g ai/ha, scale 0 to 100 (0 no effect, 100 complete control), read-out: Plant response rating, Chickweed): 70% | pest or weed control at 125 g/ha (chickweed; 125 g ai/ha, scale 0 to 100 (0 no effect, 100 complete control), read-out: Plant response rating, Chickweed): 80% | plant injury at 16 g/ha (spring wheat; 16 g ai/ha, scale 0 (no effect) to 100 (complete control), read-out: Plant response rating, Wheat, Spring): 0% | plant injury at 31 g/ha (spring wheat; 31 g ai/ha, scale 0 (no effect) to 100 (complete control), read-out: Plant response rating, Wheat, Spring): 0% | plant injury at 125 g/ha (spring wheat; 125 g ai/ha, scale 0-100, read-out: Plant response rating, Wheat, Spring): 55% | plant injury at 16 g/ha (winter wheat; 16 g ai/ha, scale 0 (no effect) to 100 (complete control), read-out: Plant response rating, Wheat, Winter): 0% | plant injury at 31 g/ha (winter wheat; 31 g ai/ha, scale 0 (no effect) to 100 (complete control), read-out: Plant response rating, Wheat, Winter): 0% | plant injury at 125 g/ha (winter wheat; 125 g ai/ha, scale 0-100, read-out: Plant response rating, Wheat, Winter): 35%
